According to US20240384268A1, “Oligonucleotides” (Hudson Institute of Medical Research, priority 2021, published 2024):
In the oligonucleotide strings, read from the 5' end, every base follows the letter of its sugar. An asterisk marks phosphorothioate; unmarked linkages are phosphodiester. Other units and linkages are bracketed, terminal groups are in braces. A string of capitals states the bases alone. d = 2'-deoxy (DNA); m = 2'-O-methyl

Tests used:
cGAS = cGAS (Homo sapiens, UniProt Q8N884); assay: ISD70-driven IP-10 (and IFN-β) production in THP-1 cells, ELISA; type: cell-based; design: endogenous in cells; host or cells: THP-1 (undifferentiated); conditions: for cGAS 100 nM (averaged IP-10 level relative to ISD70 condition): ASO 100 nM, relative to ISD70 only, given as fraction; for inhibition of ISD70-driven IP-10 production (in words): 2′OMe or PS oligos, 100-250 nM, pre-treatment as in figure legends, ISD70 2.5 μg/ml
TLR3 = target: T1, TLR3 (Homo sapiens, UniProt O15455); assay: HEK-TLR3 NF-κB-luciferase reporter, poly(I:C) stimulation; type: cell-based; design: host or cells: HEK-Blue hTLR3 (HEK293)
T1 sequence (O15455 24-904): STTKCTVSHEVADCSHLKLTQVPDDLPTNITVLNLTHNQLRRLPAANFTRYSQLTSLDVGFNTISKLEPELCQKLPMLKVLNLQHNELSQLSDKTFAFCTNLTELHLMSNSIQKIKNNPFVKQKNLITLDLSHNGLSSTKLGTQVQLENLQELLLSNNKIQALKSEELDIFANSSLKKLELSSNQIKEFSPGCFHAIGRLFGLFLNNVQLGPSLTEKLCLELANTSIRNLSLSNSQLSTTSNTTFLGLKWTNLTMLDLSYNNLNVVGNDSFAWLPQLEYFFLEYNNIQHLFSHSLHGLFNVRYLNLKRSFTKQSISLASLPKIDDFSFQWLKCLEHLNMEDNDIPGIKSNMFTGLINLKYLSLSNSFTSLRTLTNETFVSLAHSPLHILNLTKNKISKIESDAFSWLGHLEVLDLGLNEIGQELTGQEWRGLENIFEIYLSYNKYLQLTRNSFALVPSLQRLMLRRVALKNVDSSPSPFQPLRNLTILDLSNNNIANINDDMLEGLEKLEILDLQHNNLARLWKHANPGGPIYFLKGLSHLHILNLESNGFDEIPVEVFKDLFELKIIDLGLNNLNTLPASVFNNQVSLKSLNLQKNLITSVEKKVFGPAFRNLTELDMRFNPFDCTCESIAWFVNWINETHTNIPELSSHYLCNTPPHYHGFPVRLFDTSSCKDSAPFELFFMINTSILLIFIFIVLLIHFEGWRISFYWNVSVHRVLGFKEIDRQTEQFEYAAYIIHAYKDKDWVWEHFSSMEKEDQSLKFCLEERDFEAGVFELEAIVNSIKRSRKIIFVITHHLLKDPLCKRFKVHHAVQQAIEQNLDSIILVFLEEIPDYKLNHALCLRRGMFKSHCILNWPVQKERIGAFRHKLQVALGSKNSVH

[1] = 3mer 2'OMe ASO at 2 uM, value relative to Ligand only = 1.000, NT = 0.000
[2] = 3-mers DNA PS 45 min, then 500 ng/ml polyI:C overnight, NF-κB-luciferase normalised to polyI:C only (Ligand 1.000, NT 0.000)

cGAS, sequence (Q8N884 whole entry): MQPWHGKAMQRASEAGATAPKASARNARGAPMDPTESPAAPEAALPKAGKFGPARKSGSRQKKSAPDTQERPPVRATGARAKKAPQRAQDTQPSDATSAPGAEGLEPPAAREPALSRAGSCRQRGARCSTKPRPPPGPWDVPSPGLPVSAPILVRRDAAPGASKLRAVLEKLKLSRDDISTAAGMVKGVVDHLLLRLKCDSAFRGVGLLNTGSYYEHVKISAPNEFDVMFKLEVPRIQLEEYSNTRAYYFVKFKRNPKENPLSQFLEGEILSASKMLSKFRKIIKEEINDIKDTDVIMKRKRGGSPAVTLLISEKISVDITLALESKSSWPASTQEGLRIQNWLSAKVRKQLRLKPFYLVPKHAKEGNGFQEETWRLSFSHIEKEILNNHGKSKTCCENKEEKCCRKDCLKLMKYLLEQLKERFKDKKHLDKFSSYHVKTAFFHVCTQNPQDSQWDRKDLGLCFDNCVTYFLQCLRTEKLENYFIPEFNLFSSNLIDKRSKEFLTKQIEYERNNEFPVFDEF

Substance | cGAS 100 nM (averaged IP-10 level relative to ISD70 condition) (cGAS) | TLR3 2uM (TLR3; [1]) | also measured
GGCTGGAATCCGAGTT (antisense; LNA-modified, pattern not given here) [EGFR-4705 LNA KL] | 0.592 | – | –
ACU (antisense mA*mC*mU) | – | 1.062 | –
dC*dA*dC (CAC; listed as RNA, chemistry not fully specified) | – | 0.841 | TLR3 2uM (TLR3; [2]): 0.796
GTCCCCTGTTGACTGG (antisense; LNA-modified, pattern not given here) [HPRT LNA-489 KL] | 0.606 | – | –
TGTGATGGCCTCCCAT (antisense; LNA-modified, pattern not given here) [HPRT LNA-334 V1] | 0.557 | – | –
CAACACTTCGTGGGGT (antisense; LNA-modified, pattern not given here) [HPRT LNA-667 V1] | 0.675 | – | –
mGmUmA (GUA; all 2'-O-methyl, backbone not given here; further chemistry not fully specified) [shortMut1-3b] | – | 0.839 | –
mG*mG*mU*A*T*C*C*C*C*C*C*C*C*C*C*C*C*C*C*C (GGUATCCCCCCCCCCCCCCC; antisense; sugars from the 5' end m3 d17, all phosphorothioate, methylation of C not given here) [[C2]Mut1-dC] | – | – | inhibition of ISD70-driven IP-10 production (in words) (cGAS; THP-1): significantly more inhibitory than its precursor dC20
AGU (antisense mA*mG*mU) | – | 0.829 | –
TTCGTGGGGTCCTTTT (antisense; LNA-modified, pattern not given here) [HPRT LNA-661 V1] | 0.520 | – | –
GGU (mG*mG*mU) | – | 0.829 | –
dG*dC*dG [GCG] | – | 0.830 | TLR3 2uM (TLR3; [2]): 0.867
TCCAACACTTCGTGGG (antisense; LNA-modified, pattern not given here) [HPRT LNA-669 V1] | 0.539 | – | –
GCCATGCTGGCTCGGA (antisense; LNA-modified, pattern not given here) [CAMSAP1-2584 LNA V1] | 0.599 | – | –
dG*dC*dC [GCC] | – | 0.884 | TLR3 2uM (TLR3; [2]): 0.895
dA*dG*dC (DNA AGC; listed as DNA, chemistry not fully specified) | – | 1.019 | TLR3 2uM (TLR3; [2]): 0.854
mGmUmC (mG*mU*mC) [GUC, 3-mer 2′OMe PS oligo] | – | 0.752 | –
ACACTTCGTGGGGTCC (antisense; LNA-modified, pattern not given here) [HPRT LNA-665 V1] | 0.516 | – | –
mGmUmU (mG*mU*mU) [GUU, 3-mer 2′OMe PS oligo] | – | 0.825 | –
dA*dA*dC (DNA AAC; listed as DNA, chemistry not fully specified) | – | 0.901 | TLR3 2uM (TLR3; [2]): 0.861

Substance | cGAS 100 nM (averaged IP-10 level relative to ISD70 condition) (cGAS) | TLR3 2uM (TLR3; [1]) | also measured
mGmUmG (mG*mU*mG) [GUG, 3-mer 2′OMe PS oligo] | – | 0.786 | –
GGTTACGGCTCAGTAT (antisense; LNA-modified, pattern not given here) [CAMSAP1-4295 LNA KL] | 0.661 | – | –
UAG (mU*mA*mG) | – | 0.940 | –
TTTTGGCTGGGATCAA (antisense; LNA-modified, pattern not given here) [CAMSAP1-4697 LNA KL] | 0.590 | – | –
UAC (mU*mA*mC) | – | 0.813 | –
CCAAGATCAGCAGTCT (antisense; LNA-modified, pattern not given here) [CTNN2B-2341 LNA KL] | 0.356 | – | –
mUmGmG (mU*mG*mG) [UGG, 3-mer 2′OMe PS oligo] | – | 0.764 | –
UUC (mU*mU*mC) | – | 1.023 | –
GCU (mG*mC*mU) | – | 0.808 | –
GTGTCTGGAAGCTTCC (antisense; LNA-modified, pattern not given here) [CTNN2B-809 LNA V1] | 0.482 | – | inhibition of cGAS in THP-1, LNA and MOE ASO validation (in words) (cGAS; THP-1, 300 nM LNA or 200 nM MOE ASO ~30 min, ISD70 overnight (FIG. 21, 23)): potently inhibited signalling
AUA (antisense mA*mU*mA) | – | 0.570 | –
TGCACACTTCGTACCC (antisense; LNA-modified, pattern not given here) [CAMSAP1-4916 LNA V1] | 0.572 | – | –
GCATCCACCACGTCGT (antisense; LNA-modified, pattern not given here) [EGFR-3267 LNA V1] | 0.602 | – | –
CCATCCATGAGGTCCT (antisense; LNA-modified, pattern not given here) [CTNN2B-2545 LNA V1] | 0.533 | – | –
GCCATGTTTCTTCTTG (antisense; LNA-modified, pattern not given here) [MB21D1-1248 LNA KL] | 0.639 | – | –
mAmUmC (mA*mU*mC) [AUC, 3-mer 2′OMe PS oligo] | – | 0.768 | –
CUA (mC*mU*mA) | – | 0.851 | –
dA*dC*dA (DNA ACA; listed as RNA, chemistry not fully specified) | – | 1.053 | TLR3 2uM (TLR3; [2]): 0.832
CCU (mC*mC*mU) | – | 0.870 | –
GTATCGAAAGAGTCTG (antisense; LNA-modified, pattern not given here) [EGFR-3908 LNA KL] | 0.609 | – | –

Substance | cGAS 100 nM (averaged IP-10 level relative to ISD70 condition) (cGAS) | TLR3 2uM (TLR3; [1]) | also measured
TGGCCTCCCATCTCCT (antisense; LNA-modified, pattern not given here) [HPRT LNA-329 V1] | 0.494 | – | –
GCAGGCTCAGTGATGT (antisense; LNA-modified, pattern not given here) [CTNN2B-1642 LNA V1] | 0.458 | – | –
UUG (listed as RNA, chemistry not fully specified) | – | 1.030 | –
dA*dA*dA (DNA AAA; listed as DNA, chemistry not fully specified) | – | 1.026 | TLR3 2uM (TLR3; [2]): 1.065
TGATGGCCTCCCATCT (antisense; LNA-modified, pattern not given here) [HPRT LNA-332 V1] | 0.650 | – | –
AUG (mA*mU*mG) | – | 0.859 | –
GTTCAGTCCTGTCCAT (antisense; LNA-modified, pattern not given here) [HPRT LNA-292 V1] | 0.563 | – | –
UCC (mU*mC*mC) | – | 0.761 | –
dA*dA*dG (DNA AAG; listed as DNA, chemistry not fully specified) | – | 0.616 | TLR3 2uM (TLR3; [2]): 0.825
mGmAmU (mG*mA*mU) [GAU, 3-mer 2′OMe PS oligo] | – | 0.771 | –
TCGTAGTTGCTTCCTA (antisense; LNA-modified, pattern not given here) [MB21D1-1181 LNA KL] | 0.610 | – | –
mUmCmG (antisense mU*mC*mG) [660-3b] | – | 0.850 | –
UAU (mU*mA*mU) | – | 0.915 | –
mC*mG*mU*T*T*C*C*C*C*C*C*C*C*C*C*C*C*C*C*C (CGUTTCCCCCCCCCCCCCCC; antisense; sugars from the 5' end m3 d17, all phosphorothioate, methylation of C not given here) [[C2]Mut1-v3-dC] | – | – | inhibition of ISD70-driven IP-10 production (in words) (cGAS; THP-1): lacked significant inhibitory activity
mUmGmA (mU*mG*mA) [UGA, 3-mer 2′OMe PS oligo] | – | 0.806 | –
UUA (mU*mU*mA) | – | 1.081 | –
GATAGCACCTTCAGCA (antisense; LNA-modified, pattern not given here) [CTNN2B-1294 LNA KL] | 0.436 | – | –
GTCTTGGCTTCGTGGA (antisense; LNA-modified, pattern not given here) [MB21D1-522 LNA V1] | 0.620 | – | –
GCCATCCACTTGATAG (antisense; LNA-modified, pattern not given here) [EGFR-2874 LNA V1] | 0.688 | – | –
